# From paper PMC9783571, “Component Characterization, In Vitro Activities and Molecular Mechanism of Cydonia oblonga Mill. against Diabetic” (Pharmaceuticals, 2022)
# Target: T1, α-glucosidase
# T1 construct: gene MAL12; enzyme preparation
# Assay: p-NPG hydrolysis, absorbance […] nm
# Type: biochemical
# Settings: p-NPG (50 μL of 3 mM), potassium phosphate pH 7.4, 37 °C, 1 h
row,SMILES,IC50 [µg/mL]
1,O=c1cc(-c2ccc(O)c(O)c2)oc2cc(O)cc(O)c12 [Luteolin],190.4
2,COc1cc(-c2oc3cc(O)cc(O)c3c(=O)c2O)ccc1O [Isorhamnetin],158.8
3,O=c1cc(-c2ccc(O)cc2)oc2cc(O)cc(O)c12 [Apigenin],250.8
4,Oc1cc(O)c2c(c1)O[C@H](c1ccc(O)c(O)c1)[C@H](O)C2 [Epicatechin],> 5000
